# Paper PMC12281142, “A potent phenylalkylamine disrupts mycobacterial membrane bioenergetics and augments bactericidal activity of bedaquiline” (iScience, 2025)
# pIC50: −log10 of the molar value. Several values for one entry are separate records, joined by “and”; a condition that tells them apart may be missing. Equal values may be shown once. Read-outs that look alike come from different tables or passages of the source.
# Key:
# M. bovis BCG [1] = assay type: cell-based, Mycobacterium bovis BCG; conditions: 15 μM or 8 μg/mL, equivalent to 230x MIC50
# M. bovis BCG [2] = assay type: cell-based, Mycobacterium bovis BCG
# M. bovis BCG [3] = experiment: microbe, parasite or virus in culture; assay type: cell-based, Mycobacterium bovis BCG
# Mab abscessus ATCC 19977 = experiment: MIC against Mab abscessus ATCC 19977; assay type: cell-based, Mycobacterium abscessus subsp. abscessus; conditions: for MIC50: ATCC19977, 72 h; for MIC50 / MIC50 Mab abscessus ATCC 19977: 3 days
# Mab abscessus = experiment: Time-kill kinetics, Mab abscessus; assay type: cell-based, Mycobacterium abscessus subsp. abscessus; conditions: BDQ alone 4x to 32x MIC90 (0.84–6.7 μg/mL)
# [4] = system: Mab bolletii CCUG 50184-T; experiment: MIC against Mab bolletii CCUG 50184-T; assay type: cell-based, Mycobacterium abscessus subsp. bolletii; conditions: for MIC50: CCUG50184, 72 h; for MIC50 / MIC50 Mab bolletii CCUG 50184-T: 3 days
# clinical isolates of Mab = experiment: MIC50 against Mab clinical isolates; assay type: cell-based, Mycobacterium abscessus; conditions: Mycobacteroides abscessus
# [5] = system: Mab massiliense CCUG 48898-T; experiment: MIC against Mab massiliense CCUG 48898-T; assay type: cell-based, Mycobacterium abscessus subsp. massiliense; conditions: for MIC50: CCUG48898, 72 h; for MIC50 / MIC50 Mab massiliense CCUG 48898-T: 3 days
# Mab complex = experiment: MIC against Mab complex (summary over the 3 subspecies); assay type: cell-based, Mycobacterium abscessus; conditions: Mycobacteroides abscessus, read-out: MIC90 Mab complex
# Mtb H37Rv [6] = conditions: minimum concentration to inhibit growth of Mtb H37RV by 99%; cited from earlier work
# M. bovis BCG [7] = assay type: cell-based, Mycobacterium bovis BCG; conditions: 0.5x to 4x MIC90BCG
# M. bovis BCG [8] = assay type: cell-based, Mycobacterium bovis BCG; conditions: 24 h
# M. bovis BCG [9] = assay type: cell-based, Mycobacterium bovis BCG; conditions: 2x MIC90BCG over 48 h
# M. bovis BCG [10] = conditions: 2x MIC90 over 24 h
# M. bovis BCG [11] = assay type: cell-based, Mycobacterium bovis BCG; remark: listed apart in the source
# Mtb H37Rv [12] = experiment: MIC by broth microdilution against Mtb H37Rv; assay type: cell-based, Mycobacterium tuberculosis; conditions: incubation 5 days
# HepG2 = experiment: Cytotoxicity in HepG2 cells; assay type: cell-based, human; conditions: 48 h, growth suppressed by 50% vs untreated
# Protocol: (§1) To each well in a 96-well plate, 50,000 cells in 100 μL media were seeded. Vero E6 and HepG2 cells were incubated overnight in DMEM for cell adherence at 37°C and 5% CO2. The media was removed from the wells and 100 μL solution made up of fresh DMEM media (99 μL) and the test compound (1 μL from a DMSO stock solution that was […] more concentrated than the final concentration in the well) was then added to each well. DMSO content of each well was consistently kept at 0.5 %v/v. Treated plates were incubated for 48 h (5% CO2, 37°C), after which 10 μL of Celltitre 96 Aqueous One Solution was added to each well, without removal of media, and incubated for a further 3 h. Subsequently, absorbance readings were taken at 490 nm on a Tecan GENios Microplate Reader.
# (§2) Cell viability was determined from the expression: Cellviability(%)={[Absorbance(cells+cpd)−Absorbance(cpd)]/[Absorbance(cells+vc)−Absorbance(vc)]}×100% where Absorbance (cells + cpd) = absorbance of wells containing cells and test compound in vehicle (media +0.5% DMSO); Absorbance (cpd) = absorbance of wells containing test compound in vehicle without cells (compound control); Absorbance (cells + vc) = absorbance of wells containing cells in vehicle (vc) only (untreated cells); Absorbance (vc) = absorbance of wells containing vehicle without cells (vehicle control). The percentage viability readings were plotted against log(concentration) on GraphPad Prism (Version 7.0, San Diego, CA) to give a sigmoidal curve, from which IC50, defined as the concentration of the compound that reduced cell viability by 50%, was obtained. At least 3 separate determinations were carried out.
# Vero E6 = experiment: Cytotoxicity in Vero E6 cells; assay type: cell-based, African green monkey; conditions: 48 h, growth suppressed by 50% vs untreated
# Protocol: as §1, §2
# M. bovis BCG-pclgR-RFP = assay type: cell-based, Mycobacterium bovis BCG; conditions: 0.25x – 2x MIC90 (controls 10 μM), 24 h
# M. bovis BCG [13] = assay type: cell-based, Mycobacterium bovis BCG; conditions: PhA2 2x–4x MIC90BCG, TDZ 80 μM, 24 h
# [14] = Mycobacterium tuberculosis variant bovis BCG, BCG, M. bovis BCG, broth dilution, growth reduced by 50% vs untreated
# [15] = Mycobacterium tuberculosis variant bovis BCG, BCG, M. bovis BCG, broth dilution, growth reduced by 90% vs untreated
# [16] = Mycobacterium tuberculosis variant bovis BCG, BCG, read-out: MIC90 BCG, M. bovis BCG
# [17] = Mycobacteroides abscessus, 7H9 medium (first value of cell)
# [18] = Mycobacteroides abscessus, CA-MHB medium (second value of cell)
# [19] = Mycobacterium tuberculosis variant bovis BCG, BCG, read-out: MIC90 (Table S1), M. bovis BCG, broth dilution
# [20] = 7H9 medium (first value of cell)
# [21] = CA-MHB medium (second value of cell)
smiles,measurement,setting,value
"COc1nc2ccc(Br)cc2cc1[C@@H](c1ccccc1)[C@@](O)(CCN(C)C)c1cccc2ccccc12 [BDQ, bedaquiline]",oxygen consumption rate,M. bovis BCG [1],sharp increase in OCR
same,reduction in CFU,"M. bovis BCG [2]; BDQ alone 4x MIC90BCG (0.56 μg/mL), 28-day time point",10 fold
same,MIC50,M. bovis BCG [3]; [14],0.065 µM
same,MIC90,M. bovis BCG [3]; [15],0.25 µM
same,MIC50,"M. bovis BCG [3]; Mycobacterium tuberculosis variant bovis BCG, BCG, read-out: MIC50 BCG",0.036 µg/mL
same,MIC90,M. bovis BCG [3]; [16],0.14 µg/mL
same,MIC90,"Mab abscessus ATCC 19977; Mycobacteroides abscessus, ATCC19977, Mab abscessus, read-out: MIC90 abscessus",0.37 µM and 0.21 µg/mL
same,bactericidal activity,Mab abscessus,none to be bactericidal
"CC[C@H]1OC(=O)[C@H](C)[C@@H](O[C@H]2C[C@@](C)(OC)[C@@H](O)[C@H](C)O2)[C@H](C)[C@@H](O[C@@H]2O[C@H](C)C[C@H](N(C)C)[C@H]2O)[C@](C)(OC)C[C@@H](C)C(=O)[C@H](C)[C@@H](O)[C@]1(C)O [CLR, clarithromycin, reference compound]",MIC90,"[4]; Mycobacteroides abscessus, CCUG50184, 7H9 broth (first value)",19 µM
same,MIC50,[4]; [17],8.8 µM
same,MIC50,[4]; [18],1 µM
same,MIC90,"[4]; Mycobacteroides abscessus, CCUG50184, camH broth (second value)",11 µM
same,MIC50,"clinical isolates of Mab; Mab clinical isolate M9, 7H9 broth, read-out: MIC50 M9",0.1 µM
same,MIC50,"clinical isolates of Mab; Mab clinical isolate M111, 7H9 broth, read-out: MIC50 M111",0.08 µM
same,MIC50,"clinical isolates of Mab; Mab clinical isolate M232, 7H9 broth, read-out: MIC50 M232",0.27 µM
same,MIC50,"clinical isolates of Mab; Mab clinical isolate M337, 7H9 broth, read-out: MIC50 M337",0.15 µM
same,MIC50,"clinical isolates of Mab; Mab clinical isolate M404, 7H9 broth, read-out: MIC50 M404",0.1 µM
same,MIC50,"clinical isolates of Mab; Mab clinical isolate M422, 7H9 broth, read-out: MIC50 M422",0.22 µM
same,MIC50,"clinical isolates of Mab; Mab clinical isolate M506, 7H9 broth, read-out: MIC50 M506",0.09 µM
same,MIC90,"[5]; Mycobacteroides abscessus, CCUG48898, 7H9 broth (first value)",2 µM
same,MIC50,[5]; [17],0.5 µM
same,MIC50,[5]; [18],0.1 µM
same,MIC90,"[5]; Mycobacteroides abscessus, CCUG48898, camH broth (second value)",0.23 µM
same,MIC90,"Mab abscessus ATCC 19977; Mycobacteroides abscessus, ATCC19977, 7H9 broth (first value), read-out: MIC90 Mab abscessus ATCC 19977",0.5 µM
same,MIC50,Mab abscessus ATCC 19977; [17],0.2 µM
same,MIC50,Mab abscessus ATCC 19977; [18],0.15 µM
same,MIC90,"Mab abscessus ATCC 19977; Mycobacteroides abscessus, ATCC19977, camH broth (second value), read-out: MIC90 Mab abscessus ATCC 19977",0.4 µM
same,MIC90,Mab complex,0.1 to 8.8 µM
same,MIC90,"Mab complex; range over subspecies, positive control",0.08 to 6.6 µg/mL
"COc1ccc(C(C#N)(CCCN2CCN(c3ccccc3F)CC2)C(C)C)cc1OC (centres unmarked) [Compound A1, reference compound]",MIC99 Mtb,Mtb H37Rv [6],62.5 µM
same,MIC50,M. bovis BCG [3]; [14],87 µM
same,MIC90,M. bovis BCG [3]; [15],138 µM
same,MIC90,M. bovis BCG [3]; [19],138 µM
"COc1ccc(CCN(C)CCCC(C#N)(c2ccc(OC)c(OC)c2)C2CCCCC2)cc1OC (centres unmarked) [Compound A2, reference compound]",MIC99 Mtb,Mtb H37Rv [6],62.5 µM
same,MIC50,M. bovis BCG [3]; [14],36 µM
same,MIC90,M. bovis BCG [3]; [15],118 µM
same,MIC90,M. bovis BCG [3]; [19],118 µM
"NNC(=O)c1ccncc1 [INH, isoniazid, reference compound]",formazan formation from MTS,M. bovis BCG [7],increased formazan formation
same,regrowth in time-kill curve,"M. bovis BCG [2]; 2xMIC90BCG, 21 days",uptick in CFUs was observed after 5 days
same,MIC90 BCG,M. bovis BCG [3]; M. bovis BCG,0.4 µg/mL
same,MIC90,M. bovis BCG [3]; [15],3.4 µM
same,MIC90,M. bovis BCG [3]; [19],3.5 µM
same,MIC90,M. bovis BCG [3]; [16],0.45 µg/mL
same,methylene blue decolorization (O2 uptake),M. bovis BCG [8]; 4xMIC90BCG (1.6 μg/mL),Decolorization (active O2 uptake)
same,effect on ATP levels,M. bovis BCG [9],marked surge in ATP levels
same,membrane permeabilization,M. bovis BCG [10],negligible permeabilization
COc1ccc(CCN(C)CCCC(C#N)(CCC2CCCCC2)c2ccc(OC)c(OC)c2)cc1OC (centres unmarked) [PhA1],MBC99.9 (10^3-fold kill),M. bovis BCG [11],4 x MIC90
same,CFUs above the detection limit,M. bovis BCG [2],10–100 times
same,MIC90,[4]; 7H9 broth (first value),109 µM
same,MIC50 Mab bolletii CCUG 50184-T,[4]; [20],97 µM
same,MIC50 Mab bolletii CCUG 50184-T,[4]; [21],22 µM
same,MIC90,[4]; camH broth (second value),61 µM
same,MIC50,M. bovis BCG [3],12 µM
same,MIC50 BCG With Glycerol,M. bovis BCG [3],12 µM
same,MIC50 BCG Without Glycerol,M. bovis BCG [3],21 µM
same,MIC90 (Table S1),M. bovis BCG [3],25 µM
same,MIC50 Mtb H37Rv,Mtb H37Rv [12]; first value of cell MIC50/MIC90,19 µM
same,MIC90,"Mtb H37Rv [12]; second value of cell MIC50/MIC90, read-out: MIC90 Mtb H37Rv",43 µM
same,MIC90,[5]; 7H9 broth (first value),106 µM
same,MIC50 Mab massiliense CCUG 48898-T,[5]; [20],100 µM
same,MIC50 Mab massiliense CCUG 48898-T,[5]; [21],15 µM
same,MIC90,[5]; camH broth (second value),125 µM
same,MIC90,"Mab abscessus ATCC 19977; 7H9 broth (first value), read-out: MIC90 Mab abscessus ATCC 19977",115 µM
same,MIC50 Mab abscessus ATCC 19977,Mab abscessus ATCC 19977; [20],76 µM
same,MIC50 Mab abscessus ATCC 19977,Mab abscessus ATCC 19977; [21],25 µM
same,MIC90,"Mab abscessus ATCC 19977; camH broth (second value), read-out: MIC90 Mab abscessus ATCC 19977",54 µM
same,pIC50,HepG2,4.47
same,pIC50,Vero E6,4.29
"CO[C@H]1/C=C/O[C@@]2(C)Oc3c(C)c(O)c4c(O)c(c(/C=N/N5CCN(C)CC5)c(O)c4c3C2=O)NC(=O)/C(C)=C\C=C\[C@H](C)[C@H](O)[C@@H](C)[C@@H](O)[C@@H](C)[C@H](OC(C)=O)[C@@H]1C [RIF, rifampin, reference compound]",induction of pclgR promoter activity,M. bovis BCG-pclgR-RFP,No induction
same,MIC90,"M. bovis BCG [3]; Mycobacterium tuberculosis variant bovis BCG, BCG, read-out: MIC90 BCG",0.04 µM and 0.033 µg/mL
"CSc1ccc2c(c1)N(CCC1CCCCN1C)c1ccccc1S2 (centres unmarked) [TDZ, thioridazine, reference compound]",MIC90,M. bovis BCG [3]; [15],30 µM
same,MIC90,M. bovis BCG [3]; [16],11 µg/mL
same,methylene blue decolorization (O2 uptake),"M. bovis BCG [8]; 80 μM, 30 μg/mL",No decolorization
same,NADH/NAD+ ratio,M. bovis BCG [13],higher ratios
